# Laboratory results taken from ChEMBL document CHEMBL1201862, “PubChem BioAssay data set” (2004).
#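 Briefly, cells in 96-well plates were exposed to five compound concentrations for 48 h, and endpoints were estimated by linear interpolation. Abbreviation: GI50, concentration required for 50% inhibition of growth.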 Active and inactive are the calls of the source. Rule as the data show it: active = GI50 up to about 1.1 µM and inactive = higher.
# How the values were obtained:
# Assay in all cases: NCI anticancer screen, dose series, 48 h
# CAKI-1 = tested on: CAKI-1
# COLO 205 = tested on: COLO 205
# HCT-15 = tested on: HCT-15
# Hs-578T = tested on: Hs-578T
# M14 = tested on: M14
# MOLT-4 = tested on: MOLT-4
# Malme-3M = tested on: Malme-3M
# OVCAR-3 = tested on: OVCAR-3
# OVCAR-5 = tested on: OVCAR-5
# SF-268 = tested on: SF-268
# SF-295 = tested on: SF-295
# SF-539 = tested on: SF-539
# SK-MEL-28 = tested on: SK-MEL-28
# SW-620 = tested on: SW-620
# UACC-62 = tested on: UACC-62
# K562 = tested on: K562
# NCI-H522 = tested on: NCI-H522
# RPMI-8226 = tested on: RPMI-8226
# SK-MEL-5 = tested on: SK-MEL-5
# DU-145 = tested on: DU-145
Compound,GI50 (CAKI-1),GI50 (COLO 205),GI50 (HCT-15) [µM],GI50 (Hs-578T),GI50 (M14),GI50 (MOLT-4),GI50 (Malme-3M),GI50 (OVCAR-3),GI50 (OVCAR-5),GI50 (SF-268),GI50 (SF-295),GI50 (SF-539),GI50 (SK-MEL-28),GI50 (SW-620),GI50 (UACC-62),GI50 (K562),GI50 (NCI-H522),GI50 (RPMI-8226),GI50 (SK-MEL-5),GI50 (DU-145)
O=c1[nH]c2ccc(CC(=S)N3CCOCC3)cc2o1,> 100 µM (inactive),> 100 µM (inactive),> 100,> 100 µM (inactive),> 100 µM (inactive),> 100 µM (inactive),> 100 µM (inactive),> 100 µM (inactive),> 100 µM (inactive),> 100 µM (inactive),> 100 µM (inactive),> 100 µM (inactive),> 100 µM (inactive),> 100 µM (inactive),> 100 µM (inactive),,,,,
CC(=O)OCC(OC(C)=O)C(OC(C)=O)C(OC(C)=O)C(=O)CNn1c(-c2ccccc2)nc2ccc(Br)cc2c1=O (stereo not drawn),87.5 µM (inactive),> 100 µM (inactive),> 100,,> 100 µM (inactive),93.3 µM (inactive),> 100 µM (inactive),> 100 µM (inactive),> 100 µM (inactive),> 100 µM (inactive),> 100 µM (inactive),> 100 µM (inactive),> 100 µM (inactive),> 100 µM (inactive),83.4 µM (inactive),> 100 µM (inactive),46.8 µM (inactive),64.9 µM (inactive),> 100 µM (inactive),
COC(=O)C(=O)C(C(=O)OC)C(=O)C(=O)Nc1ccccc1C(N)=O (stereo not drawn),> 100 µM (inactive),,> 100,> 100 µM (inactive),> 100 µM (inactive),> 100 µM (inactive),> 100 µM (inactive),> 100 µM (inactive),> 100 µM (inactive),> 100 µM (inactive),> 100 µM (inactive),> 100 µM (inactive),> 100 µM (inactive),> 100 µM (inactive),> 100 µM (inactive),,> 100 µM (inactive),> 100 µM (inactive),> 100 µM (inactive),
Cc1cc(C)nc(NC(=O)c2ccc(Br)s2)c1,> 100 µM (inactive),10.6 µM (inactive),94.8,,21.3 µM (inactive),> 100 µM (inactive),> 100 µM (inactive),> 100 µM (inactive),17.7 µM (inactive),> 100 µM (inactive),20.5 µM (inactive),56.9 µM (inactive),> 100 µM (inactive),> 100 µM (inactive),95.3 µM (inactive),> 100 µM (inactive),> 100 µM (inactive),3.3 µM (inactive),5.13 µM (inactive),> 100 µM (inactive)
C#CCNC(=O)NC(CCCNC(=O)OCc1ccccc1)C(=O)OCc1ccccc1 (stereo not drawn),33.8 µM (inactive),35.7 µM (inactive),> 100,,24.5 µM (inactive),> 100 µM (inactive),51.9 µM (inactive),> 100 µM (inactive),> 100 µM (inactive),> 100 µM (inactive),> 100 µM (inactive),50.2 µM (inactive),> 100 µM (inactive),> 100 µM (inactive),34.8 µM (inactive),> 100 µM (inactive),25.9 µM (inactive),> 100 µM (inactive),84.1 µM (inactive),
Nc1nc(NCc2ccccc2)cc(NCc2ccccc2)n1,2.64 µM (inactive),2.97 µM (inactive),3.52,2.86 µM (inactive),10.5 µM (inactive),7.18 µM (inactive),5.66 µM (inactive),3.69 µM (inactive),16.9 µM (inactive),4 µM (inactive),4.91 µM (inactive),3.45 µM (inactive),12 µM (inactive),5.21 µM (inactive),3.67 µM (inactive),5.75 µM (inactive),4.24 µM (inactive),3.06 µM (inactive),3.71 µM (inactive),
O=C(Nc1ccccn1)c1cc2c(cc1Cl)Sc1nccn1S2(=O)=O,36.5 µM (inactive),33.5 µM (inactive),30.7,> 100 µM (inactive),48.9 µM (inactive),31.3 µM (inactive),63 µM (inactive),26.7 µM (inactive),> 100 µM (inactive),37.8 µM (inactive),36.6 µM (inactive),,44.3 µM (inactive),45 µM (inactive),42 µM (inactive),32.3 µM (inactive),39.1 µM (inactive),29.7 µM (inactive),25.6 µM (inactive),
Nc1c(-c2ccccc2-c2c(N)[n+]([O-])c3ccccc3[n+]2[O-])[n+]([O-])c2ccccc2[n+]1[O-],33.5 µM (inactive),4.69 µM (inactive),5.28,,12.2 µM (inactive),2.1 µM (inactive),35 µM (inactive),7.45 µM (inactive),64.6 µM (inactive),3.16 µM (inactive),12.9 µM (inactive),17.5 µM (inactive),23 µM (inactive),8.45 µM (inactive),3.7 µM (inactive),5.74 µM (inactive),2.06 µM (inactive),4.73 µM (inactive),10.7 µM (inactive),
COc1cc(CNc2nc3ccc(C(F)(F)F)cc3nc2-c2ccccc2)cc(OC)c1OC,14.3 µM (inactive),38.5 µM (inactive),25.4,,40 µM (inactive),4.4 µM (inactive),29.6 µM (inactive),26.4 µM (inactive),> 100 µM (inactive),19.5 µM (inactive),34.7 µM (inactive),46.7 µM (inactive),55.3 µM (inactive),21 µM (inactive),93.1 µM (inactive),18.6 µM (inactive),11.5 µM (inactive),6.11 µM (inactive),18.7 µM (inactive),
O=C1O[C@@H](c2ccccc2)C[C@@H]1CN1CCOCC1,65.5 µM (inactive),> 100 µM (inactive),> 100,,> 100 µM (inactive),> 100 µM (inactive),> 100 µM (inactive),> 100 µM (inactive),> 100 µM (inactive),> 100 µM (inactive),> 100 µM (inactive),> 100 µM (inactive),> 100 µM (inactive),> 100 µM (inactive),> 100 µM (inactive),> 100 µM (inactive),> 100 µM (inactive),59.4 µM (inactive),> 100 µM (inactive),
Cn1c(S)nnc1CNc1ccc(-c2nnc(S)n2C)cc1,> 100 µM (inactive),> 100 µM (inactive),> 100,,> 100 µM (inactive),> 100 µM (inactive),> 100 µM (inactive),> 100 µM (inactive),> 100 µM (inactive),> 100 µM (inactive),> 100 µM (inactive),> 100 µM (inactive),> 100 µM (inactive),> 100 µM (inactive),,> 100 µM (inactive),> 100 µM (inactive),,> 100 µM (inactive),> 100 µM (inactive)
COc1ccc(C2=NOP(c3ccccc3)(c3ccccc3)(c3ccccc3)C2)cc1,25.1 µM (inactive),9.64 µM (inactive),20.4,,10.8 µM (inactive),7.43 µM (inactive),21.9 µM (inactive),21.7 µM (inactive),4.45 µM (inactive),40.4 µM (inactive),2.92 µM (inactive),29.7 µM (inactive),27.9 µM (inactive),16.2 µM (inactive),13.8 µM (inactive),4.25 µM (inactive),7.91 µM (inactive),10.6 µM (inactive),13.3 µM (inactive),
